Experimental data published in ChEMBL document CHEMBL1201862, “PubChem BioAssay data set” (2004).
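Compound exposure: 48 hours, 5 concentrations, 96-well plates. Here, GI50 denotes the concentration required for 50% inhibition of growth.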 Active and inactive are the calls of the source. Cut-off read from the data, not from the text of the source: active = GI50 up to about 1.1 µM and inactive = higher.

Legend:
Assay in all cases: NCI tumour cell line growth inhibition, 48 h
SNB-19 = tested on: SNB-19
RPMI-8226 = tested on: RPMI-8226
HOP-62 = tested on: HOP-62
U-251 = tested on: U-251
NCI-H522 = tested on: NCI-H522
EKVX = tested on: EKVX
OVCAR-3 = tested on: OVCAR-3
MDA-MB-435 = tested on: MDA-MB-435
NCI-H460 = tested on: NCI-H460
HOP-92 = tested on: HOP-92
HCT-116 = tested on: HCT-116
BT-549 = tested on: BT-549
COLO 205 = tested on: COLO 205
SN12C = tested on: SN12C
SK-MEL-28 = tested on: SK-MEL-28
OVCAR-4 = tested on: OVCAR-4
IGROV-1 = tested on: IGROV-1
KM12 = tested on: KM12
Hs-578T = tested on: Hs-578T
MOLT-4 = tested on: MOLT-4
A549 = tested on: A549
K562 = tested on: K562
SK-OV-3 = tested on: SK-OV-3
UACC-62 = tested on: UACC-62
MDA-MB-231 = tested on: MDA-MB-231
Malme-3M = tested on: Malme-3M
NCI-H226 = tested on: NCI-H226
MDA-N = tested on: MDA-N
RXF 393 = tested on: RXF 393
T47D = tested on: T47D
SF-268 = tested on: SF-268
TK-10 = tested on: TK-10
786-0 = tested on: 786-0
UO-31 = tested on: UO-31
CCRF-CEM = tested on: CCRF-CEM
ACHN = tested on: ACHN
OVCAR-5 = tested on: OVCAR-5
LOX IMVI = tested on: LOX IMVI
HCC 2998 = tested on: HCC 2998
UACC-257 = tested on: UACC-257
A498 = tested on: A498
CAKI-1 = tested on: CAKI-1
SW-620 = tested on: SW-620
MCF7 = tested on: MCF7
SF-295 = tested on: SF-295
NCI-H23 = tested on: NCI-H23
OVCAR-8 = tested on: OVCAR-8
HCT-15 = tested on: HCT-15
PC-3 = tested on: PC-3
M14 = tested on: M14
SK-MEL-5 = tested on: SK-MEL-5
DU-145 = tested on: DU-145
NCI/ADR-RES = tested on: NCI/ADR-RES
HT-29 = tested on: HT-29
SR = tested on: SR
HL-60 = tested on: HL-60
SF-539 = tested on: SF-539
SNB-75 = tested on: SNB-75
SK-MEL-2 = tested on: SK-MEL-2

SMILES: OCCN(CCO)c1ncnc2[nH]cnc12
- GI50 (SNB-19): > 100 µM (inactive)
- GI50 (RPMI-8226): > 100 µM (inactive)
- GI50 (HOP-62): > 100 µM (inactive)
- GI50 (U-251): > 100 µM (inactive)
- GI50 (NCI-H522): > 100 µM (inactive)
- GI50 (EKVX): 68.5 µM (inactive)
- GI50 (OVCAR-3): > 100 µM (inactive)
- GI50 (MDA-MB-435): > 100 µM (inactive)
- GI50 (NCI-H460): > 100 µM (inactive)
- GI50 (HOP-92): > 100 µM (inactive)
- GI50 (HCT-116): > 100 µM (inactive)
- GI50 (BT-549): > 100 µM (inactive)
- GI50 (COLO 205): > 100 µM (inactive)
- GI50 (SN12C): > 100 µM (inactive)
- GI50 (SK-MEL-28): > 100 µM (inactive)
- GI50 (OVCAR-4): > 100 µM (inactive)
- GI50 (IGROV-1): > 100 µM (inactive)
- GI50 (KM12): > 100 µM (inactive)
- GI50 (Hs-578T): 53.6 µM (inactive)
- GI50 (MOLT-4): > 100 µM (inactive)
- GI50 (A549): > 100 µM (inactive)
- GI50 (K562): > 100 µM (inactive)
- GI50 (SK-OV-3): > 100 µM (inactive)
- GI50 (UACC-62): > 100 µM (inactive)
- GI50 (MDA-MB-231): 80.9 µM (inactive)
- GI50 (Malme-3M): > 100 µM (inactive)
- GI50 (NCI-H226): > 100 µM (inactive)
- GI50 (MDA-N): > 100 µM (inactive)
- GI50 (RXF 393): > 100 µM (inactive)
- GI50 (T47D): > 100 µM (inactive)
- GI50 (SF-268): > 100 µM (inactive)
- GI50 (TK-10): 67.1 µM (inactive)
- GI50 (786-0): > 100 µM (inactive)
- GI50 (UO-31): 63.4 µM (inactive)
- GI50 (CCRF-CEM): > 100 µM (inactive)
- GI50 (ACHN): > 100 µM (inactive)
- GI50 (OVCAR-5): 60.8 µM (inactive)
- GI50 (LOX IMVI): > 100 µM (inactive)
- GI50 (HCC 2998): > 100 µM (inactive)
- GI50 (UACC-257): > 100 µM (inactive)
- GI50 (A498): > 100 µM (inactive)
- GI50 (CAKI-1): > 100 µM (inactive)
- GI50 (SW-620): > 100 µM (inactive)
- GI50 (MCF7): > 100 µM (inactive)
- GI50 (SF-295): > 100 µM (inactive)
- GI50 (NCI-H23): > 100 µM (inactive)
- GI50 (OVCAR-8): > 100 µM (inactive)
- GI50 (HCT-15): > 100 µM
- GI50 (PC-3): > 100 µM (inactive)
- GI50 (M14): > 100 µM (inactive)
- GI50 (SK-MEL-5): > 100 µM (inactive)
- GI50 (DU-145): > 100 µM (inactive)
- GI50 (NCI/ADR-RES): > 100 µM (inactive)
- GI50 (HT-29): > 100 µM (inactive)

SMILES: CCCCc1ccc(Nc2nc(Cl)c3[nH]cnc3n2)cc1
- GI50 (SNB-19): 19.1 µM (inactive)
- GI50 (RPMI-8226): 33.2 µM (inactive)
- GI50 (HOP-62): 14 µM (inactive)
- GI50 (NCI-H522): 24.2 µM (inactive)
- GI50 (SR): 47.8 µM (inactive)
- GI50 (EKVX): 33.8 µM (inactive)
- GI50 (OVCAR-3): 14.8 µM (inactive)
- GI50 (MDA-MB-435): 16.8 µM (inactive)
- GI50 (HOP-92): 11.6 µM (inactive)
- GI50 (HCT-116): 16.3 µM (inactive)
- GI50 (BT-549): 28.1 µM (inactive)
- GI50 (COLO 205): 24.2 µM (inactive)
- GI50 (SN12C): 22.4 µM (inactive)
- GI50 (OVCAR-4): 34.4 µM (inactive)
- GI50 (IGROV-1): 25.6 µM (inactive)
- GI50 (KM12): 17.1 µM (inactive)
- GI50 (HL-60): 42.1 µM (inactive)
- GI50 (Hs-578T): 24.5 µM (inactive)
- GI50 (MOLT-4): 20.4 µM (inactive)
- GI50 (A549): 33.5 µM (inactive)
- GI50 (K562): 32.7 µM (inactive)
- GI50 (SK-OV-3): 34.3 µM (inactive)
- GI50 (UACC-62): 16.4 µM (inactive)
- GI50 (SF-539): 18.7 µM (inactive)
- GI50 (MDA-MB-231): 16.6 µM (inactive)
- GI50 (Malme-3M): 19.3 µM (inactive)
- GI50 (NCI-H226): 39.6 µM (inactive)
- GI50 (MDA-N): 21.9 µM (inactive)
- GI50 (RXF 393): 17.1 µM (inactive)
- GI50 (T47D): 11.2 µM (inactive)
- GI50 (SF-268): 22 µM (inactive)
- GI50 (TK-10): 22.8 µM (inactive)
- GI50 (786-0): 15.7 µM (inactive)
- GI50 (UO-31): 23.8 µM (inactive)
- GI50 (CCRF-CEM): 39.1 µM (inactive)
- GI50 (ACHN): 20.8 µM (inactive)
- GI50 (SNB-75): 33 µM (inactive)
- GI50 (OVCAR-5): 40.6 µM (inactive)
- GI50 (LOX IMVI): 13.7 µM (inactive)
- GI50 (HCC 2998): 25.5 µM (inactive)
- GI50 (UACC-257): 16.2 µM (inactive)
- GI50 (A498): 21.4 µM (inactive)
- GI50 (CAKI-1): 27.2 µM (inactive)
- GI50 (SW-620): 19.2 µM (inactive)
- GI50 (MCF7): 20.4 µM (inactive)
- GI50 (SF-295): 17.7 µM (inactive)
- GI50 (NCI-H23): 17.7 µM (inactive)
- GI50 (OVCAR-8): 18.4 µM (inactive)
- GI50 (HCT-15): 18 µM
- GI50 (M14): 20.9 µM (inactive)
- GI50 (SK-MEL-5): 16.7 µM (inactive)
- GI50 (DU-145): 17.9 µM (inactive)
- GI50 (NCI/ADR-RES): 19.3 µM (inactive)
- GI50 (SK-MEL-2): 14.6 µM (inactive)
- GI50 (HT-29): 19.9 µM (inactive)
